# According to patent US4209511A, “Aminoglycoside antibiotics and process for production thereof” (Yamanouchi Pharmaceutical Co., Ltd., priority 1978, dated 1980):
# Where two headings read alike, the source gives them in different places.
# Assays:
# [1] = tested on: Staphylococcus aureus Onuma (PC-,SM-,Mac-resistant); assay: Minimum inhibitory concentration, Staphylococcus aureus Onuma (PC-,SM-,Mac-resistant); type: cell-based; conditions: read-out: Minimum Inhibitory Concentration
# [2] = tested on: Staphylococcus aureus (PC-,SM-,TC-,KM-,Mac-resistant); assay: Minimum inhibitory concentration, Staphylococcus aureus (PC-,SM-,TC-,KM-,Mac-resistant); type: cell-based; conditions: read-out: Minimum Inhibitory Concentration
# Shigella sonnei II 37148 = assay: Minimum inhibitory concentration, Shigella sonnei II 37148; type: cell-based; conditions: II37148
# [3] = tested on: Escherichia coli K-12 R-5; assay: Minimum inhibitory concentration, Escherichia coli K-12 R-5; type: cell-based; conditions: for MIC: K12R5, Escherichia coli K-12 R-5 (inactivates aminoglycosides with an acetyltransferase)
# [4] = tested on: Staphylococcus aureus Smith; assay: Minimum inhibitory concentration, Staphylococcus aureus Smith; type: cell-based; conditions: read-out: Minimum Inhibitory Concentration
# [5] = tested on: Pseudomonas melanogenum IAM 1655; assay: Minimum inhibitory concentration, Pseudomonas melanogenum IAM 1655; type: cell-based
# [6] = tested on: Escherichia coli K-12 ML-1629; assay: Minimum inhibitory concentration, Escherichia coli K-12 ML-1629; type: cell-based; conditions: K12ML1629; Escherichia coli K-12 ML-1629 (inactivates aminoglycosides with a phosphotransferase)
# Escherichia coli NIHJ = assay: Minimum inhibitory concentration, Escherichia coli NIHJ; type: cell-based; conditions: read-out: Minimum Inhibitory Concentration
# [7] = tested on: Micrococcus flavus ATCC 10240; assay: Minimum inhibitory concentration, Micrococcus flavus ATCC 10240; type: cell-based
# [8] = tested on: Salmonella enteritidis 1891; assay: Minimum inhibitory concentration, Salmonella enteritidis 1891; type: cell-based; conditions: Salmonella enterica, read-out: Minimum Inhibitory Concentration
# [9] = tested on: Pseudomonas aeruginosa ATCC 8689; assay: Minimum inhibitory concentration, Pseudomonas aeruginosa ATCC 8689; type: cell-based
# [10] = tested on: Pseudomonas aeruginosa 99; assay: Minimum inhibitory concentration, Pseudomonas aeruginosa 99; type: cell-based; conditions: Pseudomonas aeruginosa 99 (inactivates aminoglycosides with an acetyltransferase)
# [11] = tested on: Pseudomonas aeruginosa GN-315; assay: Minimum inhibitory concentration, Pseudomonas aeruginosa GN-315; type: cell-based
# Sarcina lutea ATCC 9341 = assay: Minimum inhibitory concentration, Sarcina lutea ATCC 9341; type: cell-based; conditions: Micrococcus luteus
# Proteus vulgaris OXK US = assay: Minimum inhibitory concentration, Proteus vulgaris OXK US; type: cell-based; conditions: read-out: Minimum Inhibitory Concentration
# Mycobacterium phlei = assay: Minimum inhibitory concentration, Mycobacterium phlei; type: cell-based; conditions: Mycolicibacterium phlei, read-out: Minimum Inhibitory Concentration
# Solubility = type: physicochemical; conditions: free base (lyophilized product)
# in vivo = conditions: mouse, iv
# [12] = Staphylococcus aureus Onuma (PC-,SM-,Mac-resistant)
# [13] = Staphylococcus aureus (PC-,SM-,TC-,KM-,Mac-resistant)
# [14] = Pseudomonas, IAM1655, read-out: Minimum Inhibitory Concentration
# [15] = ATCC10240, Micrococcus flavus ATCC 10240, read-out: Minimum Inhibitory Concentration
# [16] = Pseudomonas aeruginosa, ATCC8689, read-out: Minimum Inhibitory Concentration
# [17] = GN315, Pseudomonas aeruginosa GN-315, read-out: Minimum Inhibitory Concentration
# [18] = ATCC9341, read-out: Minimum Inhibitory Concentration
# [19] = IAM1655, Pseudomonas melanogenum IAM 1655, read-out: Minimum Inhibitory Concentration
# [20] = ATCC8689, Pseudomonas aeruginosa ATCC 8689, read-out: Minimum Inhibitory Concentration
# [21] = ATCC9341, Sarcina lutea ATCC 9341, read-out: Minimum Inhibitory Concentration
# [22] = Pseudomonas aeruginosa, GN315, read-out: Minimum Inhibitory Concentration
# [23] = Micrococcus flavus, ATCC10240, read-out: Minimum Inhibitory Concentration
SMILES,"MIC [1, 12] [µg/mL]","MIC [2, 13] [µg/mL]",MIC (Shigella sonnei II 37148) [µg/mL],MIC [3] [µg/mL],MIC ([4]; Staphylococcus aureus Smith) [µg/mL],"MIC [5, 14] [µg/mL]",MIC [6] [µg/mL],MIC (Escherichia coli NIHJ; Escherichia coli NIHJ) [µg/mL],"MIC [7, 15] [µg/mL]",MIC ([8]; Salmonella enteritidis 1891) [µg/mL],"MIC [9, 16] [µg/mL]",MIC [10] [µg/mL],"MIC [11, 17] [µg/mL]",MIC (Sarcina lutea ATCC 9341; [18]) [µg/mL],MIC (Proteus vulgaris OXK US; Proteus vulgaris) [µg/mL],MIC (Mycobacterium phlei) [µg/mL],Solubility in acetone (Solubility),"Solubility in chloroform, benzene, ethyl acetate, butyl acetate, ether, n-hexane, etc. (Solubility)",Solubility in ethanol (Solubility),Solubility in methanol (Solubility),also measured
"NC[C@@H]1CC[C@@H](N)[C@@H](O[C@H]2[C@H](O)[C@@H](O[C@H]3O[C@H](CO)[C@@H](O)[C@H](N)[C@H]3O)[C@H](N)C[C@@H]2N)O1 [DKB, Dibekacin, reference compound]",0.19,0.19,1.56,100,0.78,1.56,1.56,0.78,3.13,0.78,1.56,1.56,100,1.56,1.56,1.56,,,,,
"CNC1C(O)C(OC2C(N)CC(N)C(OC3OC(CN)CCC3O)C2O)OC(CO)C1(C)O (centres unmarked) [I-A2, 3""-N-Methyl-4""-C-methyl-3',4'-dideoxykanamycin A or its 4""-epimer]",,6.25,3.13,> 100,,,3.13,1.56,0.78,1.56,,12.5,> 100,,3.13,,sparingly soluble,insoluble,sparingly soluble,soluble,"MIC ([1]; Staphylococcus aureus): 3.13 µg/mL; MIC ([4]; Staphylococcus aureus): 3.13 µg/mL; MIC [5, 19]: 6.25 µg/mL; Solubility in water (Solubility): Very easily soluble; MIC [9, 20]: 6.25 µg/mL; MIC (Sarcina lutea ATCC 9341; [21]): 0.78 µg/mL; MIC (Mycobacterium phlei; Mycobacterium phlei): 1.56 µg/mL"
"CNCC1CCC(N)C(OC2C(N)CC(N)C(OC3OC(CO)C(C)(O)C(NC)C3O)C2O)O1 (centres unmarked) [I-B1, 3""-N-Methyl-4""-C-methyl-3',4'-dideoxy-6'-N-methylkanamycin B or its 4""-epimer]",0.19,0.19,0.78,1.56,0.39,1.56,1.56,0.78,0.39,0.78,3.13,3.13,,,,,sparingly soluble,insoluble,soluble,soluble,"inhibited the growth of resistant bacteria ([3]; Escherichia coli K-12 R-5, inactivates Kanamycin B by acetylating the 6'-amino group): inhibited the growth; Solubility in water (Solubility): Very easily soluble; inhibited the growth of resistant bacteria ([11]; Pseudomonas aeruginosa GN 315, inactivates Kanamycin B by acetylating the 6'-amino group): inhibited the growth; MIC [11, 22]: 1.56 µg/mL; MIC (Sarcina lutea ATCC 9341; [21]): 0.39 µg/mL; MIC (Proteus vulgaris OXK US; Proteus vulgaris OXK US): 0.78 µg/mL; MIC (Mycobacterium phlei; Mycobacterium phlei): 0.78 µg/mL"
"CNC1C(O)C(OC2C(N)CC(N)C(OC3OC(CN)CCC3N)C2O)OC(CO)C1(C)O (centres unmarked) [I-B2, 3""-N-Methyl-4""-C-methyl-3',4'-dideoxykanamycin B or its 4""-epimer]",0.19,0.19,0.78,25,0.39,1.56,1.56,0.78,0.39,0.39,,6.25,50,,,,sparingly soluble,insoluble,sparingly soluble,soluble,"Solubility in water (Solubility): Very easily soluble; MTD (in vivo): 125 mg/kg; MIC [9, 20]: 3.13 µg/mL; MIC (Sarcina lutea ATCC 9341; [21]): 0.39 µg/mL; MIC (Proteus vulgaris OXK US; Proteus vulgaris OXK US): 0.78 µg/mL; MIC (Mycobacterium phlei; Mycobacterium phlei): 0.39 µg/mL"
"NCC1OC(OC2C(N)CC(N)C(OC3OC(CO)C(O)C(N)C3O)C2O)C(O)C(O)C1O (centres unmarked) [KM-A, Kanamycin A, reference compound]",,,3.13,> 100,,,> 100,,,,> 100,100,,3.13,6.25,1.56,,,,,"MIC ([1]; Staphylococcus aureus): 1.56 µg/mL; MIC ([2]; Staphylococcus aureus): > 100 µg/mL; MIC ([4]; Staphylococcus aureus): 3.13 µg/mL; MIC [5, 19]: > 100 µg/mL; MIC (Escherichia coli NIHJ; Escherichia coli): 3.13 µg/mL; MIC [7, 23]: 6.25 µg/mL; MIC ([8]; ENTERITIDIS): 3.13 µg/mL; MIC [11, 22]: > 100 µg/mL"
"NC[C@H]1O[C@H](O[C@H]2[C@H](O)[C@@H](O[C@H]3O[C@H](CO)[C@@H](O)[C@H](N)[C@H]3O)[C@H](N)C[C@@H]2N)[C@H](N)[C@@H](O)[C@@H]1O [KM-B, Kanamycin B, reference compound]",0.78,50,1.56,> 100,,50,> 100,,,,100,50,100,0.78,6.25,3.13,,,,,"MIC (Escherichia coli NIHJ; Escherichia coli): 1.56 µg/mL; MIC [7, 23]: 1.56 µg/mL; MIC ([8]; ENTERITIDIS): 1.56 µg/mL"
